Some test systems named below: TK-10; HCT-15; HL-60; T47D; NCI-H226; UO-31; NCI-H460; HCT-116; UACC-257; SK-MEL-2; SF-539; RXF 393; SNB-75; SF-295; OVCAR-4; Malme-3M; OVCAR-8; 786-0; OVCAR-5; M14.
What all share (test): NCI anticancer screen, dose series, 48 h

Each structure is given as a SMILES string.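 Five compound concentrations were applied to cells in 96-well plates for 48 hours; endpoints were derived by simple linear interpolation of the resulting dose-response curve. Abbreviation: GI50, concentration required for 50% inhibition of growth.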 Activity calls are given as the source filed them. No stated cut-off is given here; in the data, active = GI50 up to about 1.1 µM and inactive = higher.

`NCCNc1nc(N2CCCC2)c2nc(Cl)c(NCc3ccccc3)nc2n1`: the GI50 in the experiment with TK-10 is 1.67 µM (inactive); with HCT-15, 1.95 µM; in the experiment on HL-60, 1.97 µM (inactive); in the experiment on T47D, 1.66 µM (inactive); with NCI-H226 it was 3.15 µM (inactive); in the experiment on UO-31 it was 1.73 µM (inactive). In addition, the GI50 with NCI-H460 was 1.85 µM (inactive); in the experiment on HCT-116 it was 1.49 µM (inactive); in the experiment with UACC-257 it was 1.9 µM (inactive); in the experiment on SK-MEL-2, 1.79 µM (inactive); with SF-539 it was 1.96 µM (inactive); in the experiment on RXF 393 it was 1.4 µM (inactive). For the same compound, the GI50 in the experiment on SNB-75 was 1.72 µM (inactive); in the experiment with SF-295, 1.86 µM (inactive); in the experiment with OVCAR-4 it was 2.16 µM (inactive); with Malme-3M, 2.07 µM (inactive); with OVCAR-8, 1.76 µM (inactive); with 786-0, 1.77 µM (inactive). Also, the GI50 with OVCAR-5 is 2.44 µM (inactive); with M14, 1.67 µM (inactive).
For `COC1(c2cccs2)c2ccccc2C(OC)(c2cccs2)c2ccccc21` (stereo not given), the GI50 in the experiment with TK-10 is 36.8 µM (inactive); in the experiment on HCT-15 it was greater than 100 µM; with HL-60 it was > 100 µM (inactive); with T47D, 85.7 µM (inactive); with NCI-H226, > 100 µM (inactive); with UO-31, > 100 µM (inactive). The GI50 was > 100 µM (inactive) in the experiment on NCI-H460; 17.4 µM (inactive) in the experiment with HCT-116; > 100 µM (inactive) in the experiment with UACC-257; 50.5 µM (inactive) in the experiment on SK-MEL-2; 36.5 µM (inactive) with SF-539; 52.4 µM (inactive) in the experiment with RXF 393. Also, the GI50 with SNB-75 is 59.8 µM (inactive); with SF-295, 28.3 µM (inactive); in the experiment with OVCAR-4, 33.7 µM (inactive); in the experiment with Malme-3M it was > 100 µM (inactive); with OVCAR-8 it was > 100 µM (inactive); with 786-0, 35.3 µM (inactive). The GI50 is 44.4 µM (inactive) with OVCAR-5 and 81.1 µM (inactive) in the experiment with M14.
As to `Cc1nnc2cc(C(=O)O)c3ccccc3n2c1=O`, the GI50 with TK-10 is > 10 µM (inactive); in the experiment with HCT-15 it was greater than 10 µM; with HL-60 it was > 10 µM (inactive); in the experiment on T47D it was > 10 µM (inactive); with NCI-H226 it was > 10 µM (inactive); with UO-31 it was > 10 µM (inactive). Further, the GI50 with NCI-H460, with HCT-116, with UACC-257, with SK-MEL-2, in the experiment on SF-539 and with RXF 393 was > 10 µM (inactive) throughout. For the same compound, the GI50 with SNB-75 was 2.55 µM (inactive); in the experiment on SF-295, > 10 µM (inactive); in the experiment with OVCAR-4, > 10 µM (inactive); in the experiment on Malme-3M, > 10 µM (inactive); in the experiment on OVCAR-8, > 10 µM (inactive); in the experiment with 786-0, > 10 µM (inactive). Moreover, the GI50 with OVCAR-5 and in the experiment with M14 was > 10 µM (inactive) each time.
Turning to `CC1(C)CC(C)(C)C1=NNC(N)=O`, the GI50 in the experiment with TK-10 is > 100 µM (inactive); in the experiment on HCT-15, greater than 100 µM; in the experiment on HL-60, > 100 µM (inactive); with T47D, > 100 µM (inactive); in the experiment with NCI-H226 it was > 100 µM (inactive); with UO-31 it was > 100 µM (inactive). In addition, the GI50 in the experiment with NCI-H460, in the experiment on HCT-116, in the experiment on UACC-257, with SK-MEL-2, in the experiment on SF-539 and with RXF 393 was > 100 µM (inactive) in each case. The GI50 in the experiment on SNB-75, in the experiment on SF-295, in the experiment with OVCAR-4, with Malme-3M, in the experiment on OVCAR-8 and in the experiment on 786-0 was > 100 µM (inactive) each time. Besides, the GI50 in the experiment on OVCAR-5 and in the experiment on M14 was > 100 µM (inactive) in each case.
For the compound `COc1ccc2c(c1)CN1C(=N2)CSC1c1ccccc1Cl` (stereo not given), the GI50 in the experiment with TK-10 was 23.7 µM (inactive); in the experiment with HCT-15, 11.7 µM; in the experiment on HL-60, 6.55 µM (inactive); with T47D, 27.7 µM (inactive); with NCI-H226, 12.6 µM (inactive); with UO-31 it was 11.5 µM (inactive). Also, the GI50 in the experiment on NCI-H460 is 14.3 µM (inactive); in the experiment on HCT-116 it was 17.5 µM (inactive); in the experiment with UACC-257, 13.4 µM (inactive); in the experiment with SK-MEL-2 it was 17.7 µM (inactive); in the experiment with SF-539, 14.5 µM (inactive); with RXF 393, 14.4 µM (inactive). Also, the GI50 with SNB-75 was 19 µM (inactive); in the experiment with SF-295 it was 24.7 µM (inactive); in the experiment with OVCAR-4 it was 20.1 µM (inactive); in the experiment on Malme-3M, 19.1 µM (inactive); in the experiment on OVCAR-8, 16.7 µM (inactive); in the experiment with 786-0, 17.9 µM (inactive). Besides, the GI50 with OVCAR-5 was 18.5 µM (inactive); in the experiment with M14, 18.3 µM (inactive).
With `O=C(CNS(=O)(=O)Cc1ccccc1)NNc1ccccc1`, the GI50 in the experiment with TK-10 was > 100 µM (inactive); in the experiment on HCT-15, greater than 100 µM; in the experiment on HL-60, 3.44 µM (inactive); in the experiment with T47D, > 42.3 µM (inactive); with NCI-H226, > 100 µM (inactive); in the experiment with UO-31, > 100 µM (inactive). For the same compound, the GI50 was 25.1 µM (inactive) in the experiment on NCI-H460; > 100 µM (inactive) in the experiment with HCT-116; > 78.2 µM (inactive) in the experiment with UACC-257; > 30 µM (inactive) in the experiment on SK-MEL-2; 3.05 µM (inactive) in the experiment on SF-539; > 100 µM (inactive) with RXF 393. For the same compound, the GI50 in the experiment with SNB-75 is > 36.6 µM (inactive); in the experiment with SF-295, 4.02 µM (inactive); in the experiment with OVCAR-4 it was > 100 µM (inactive); in the experiment with Malme-3M, > 100 µM (inactive); in the experiment with OVCAR-8, > 100 µM (inactive); in the experiment with 786-0, > 100 µM (inactive). Besides, the GI50 in the experiment with OVCAR-5 is > 100 µM (inactive); in the experiment with M14, > 63.7 µM (inactive).
`CC(C(=O)[O-])S(=O)(=O)O.CCc1c2cc(OC)c(OC)cc2cc2c3cc(OC)c(OC)cc3cc[n+]12`: the GI50 is 69.7 µM (inactive) in the experiment with TK-10; 38.4 µM in the experiment on HCT-15; 20.8 µM (inactive) in the experiment with HL-60; 5.11 µM (inactive) with T47D; 9.73 µM (inactive) in the experiment on NCI-H226; 53.7 µM (inactive) in the experiment with UO-31. For the same compound, the GI50 in the experiment on NCI-H460 was 42.4 µM (inactive); with HCT-116 it was 17.8 µM (inactive); in the experiment with UACC-257, 13.3 µM (inactive); with SK-MEL-2 it was 25.6 µM (inactive); with SF-539, 9.77 µM (inactive); in the experiment with RXF 393 it was 65.2 µM (inactive). The GI50 in the experiment on SNB-75 is 7.94 µM (inactive); in the experiment on SF-295 it was 67.3 µM (inactive); in the experiment on OVCAR-4, 10.2 µM (inactive); with Malme-3M it was 8.79 µM (inactive); in the experiment with OVCAR-8, 20 µM (inactive); in the experiment on 786-0, 36.9 µM (inactive). Further, the GI50 is 58.7 µM (inactive) in the experiment on OVCAR-5 and 51.1 µM (inactive) with M14.
For `COc1ccc(/N=N/c2c(-c3c(OC)cc4occc4c3OC)[nH]c(=O)c(C#N)c2C)cc1`, the GI50 in the experiment on TK-10 was > 100 µM (inactive); with HCT-15, greater than 100 µM; in the experiment with HL-60 it was > 100 µM (inactive); in the experiment on T47D, > 100 µM (inactive); in the experiment with NCI-H226, > 100 µM (inactive); in the experiment on UO-31, > 100 µM (inactive). Further, the GI50 in the experiment on NCI-H460, in the experiment with HCT-116, in the experiment on UACC-257, in the experiment on SK-MEL-2, with SF-539 and in the experiment on RXF 393 was > 100 µM (inactive) throughout. The GI50 with SNB-75 was 53.2 µM (inactive); in the experiment with SF-295, > 100 µM (inactive); with OVCAR-4 it was > 100 µM (inactive); in the experiment with Malme-3M it was 55 µM (inactive); in the experiment on OVCAR-8 it was > 100 µM (inactive); in the experiment with 786-0, > 100 µM (inactive). In addition, the GI50 with OVCAR-5 and in the experiment with M14 was > 100 µM (inactive) throughout.
In the case of `COc1ccc2c(c1)-c1c(c3ccccc3n1CCN1CCCCC1)CC2`, the GI50 is 20.3 µM (inactive) with TK-10; 13.3 µM in the experiment with HCT-15; 2.63 µM (inactive) in the experiment with HL-60; 18.9 µM (inactive) with T47D; 17.2 µM (inactive) in the experiment on NCI-H226; 12.6 µM (inactive) in the experiment with UO-31. Besides, the GI50 was 16.6 µM (inactive) with NCI-H460; 13.1 µM (inactive) with HCT-116; 22.4 µM (inactive) in the experiment with UACC-257; 5.73 µM (inactive) in the experiment on SK-MEL-2; 6.37 µM (inactive) in the experiment with SF-539; 1.57 µM (inactive) with RXF 393. Besides, the GI50 was 14.8 µM (inactive) with SNB-75; 5.52 µM (inactive) in the experiment on SF-295; 25.6 µM (inactive) in the experiment with OVCAR-4; 23.4 µM (inactive) with Malme-3M; 4.43 µM (inactive) with OVCAR-8; 16.9 µM (inactive) with 786-0. Also, the GI50 was 11.9 µM (inactive) in the experiment with OVCAR-5 and 5.47 µM (inactive) with M14.
Consider `Cc1ccc(C(=O)c2[nH]c(Nc3ccc(Cl)cc3)c(C(=S)Nc3ccccc3)c2N)cc1`, for which the GI50 is 5.36 µM (inactive) with TK-10; 10.7 µM in the experiment on HCT-15; 44.4 µM (inactive) with HL-60; 15.5 µM (inactive) in the experiment on T47D; 14 µM (inactive) in the experiment on NCI-H226; 9.14 µM (inactive) in the experiment on UO-31. The GI50 was 4.2 µM (inactive) with NCI-H460; 3.72 µM (inactive) in the experiment with HCT-116; 18.7 µM (inactive) in the experiment on UACC-257; 14.5 µM (inactive) in the experiment with SK-MEL-2; 5.3 µM (inactive) with SF-539; 4.94 µM (inactive) in the experiment with RXF 393. Further, the GI50 in the experiment on SNB-75 was 2.94 µM (inactive); in the experiment with SF-295, 2.13 µM (inactive); in the experiment on OVCAR-4, 1.97 µM (inactive); in the experiment with Malme-3M it was 4.17 µM (inactive); in the experiment with OVCAR-8 it was 4.68 µM (inactive); in the experiment on 786-0, 2.74 µM (inactive). Besides, the GI50 in the experiment on OVCAR-5 is 11 µM (inactive); in the experiment with M14, 12.9 µM (inactive).
